This experiment deals with T1, Protein kinase C zeta type (Rattus norvegicus, UniProt P09217).
T1 sequence (P09217 whole entry): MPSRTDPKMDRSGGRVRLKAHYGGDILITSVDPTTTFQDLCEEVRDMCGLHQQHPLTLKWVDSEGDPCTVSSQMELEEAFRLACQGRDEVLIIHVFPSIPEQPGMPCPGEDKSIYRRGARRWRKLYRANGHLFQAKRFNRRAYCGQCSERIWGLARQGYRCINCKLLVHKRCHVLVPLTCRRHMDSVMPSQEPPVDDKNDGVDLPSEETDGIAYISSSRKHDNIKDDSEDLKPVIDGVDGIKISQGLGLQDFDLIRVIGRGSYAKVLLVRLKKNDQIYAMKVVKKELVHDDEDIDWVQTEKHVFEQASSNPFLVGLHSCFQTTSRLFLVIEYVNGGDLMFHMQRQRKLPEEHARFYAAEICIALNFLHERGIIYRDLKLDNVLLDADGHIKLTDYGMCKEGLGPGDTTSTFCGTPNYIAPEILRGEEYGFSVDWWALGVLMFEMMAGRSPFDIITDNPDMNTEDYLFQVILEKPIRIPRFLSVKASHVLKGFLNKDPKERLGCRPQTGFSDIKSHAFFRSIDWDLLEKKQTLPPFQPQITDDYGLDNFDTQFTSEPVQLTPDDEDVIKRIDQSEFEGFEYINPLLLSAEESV
Nature of the experiment: Inhibition of Protein kinase C isolated from rat brain.

A word on the IC50: it is the concentration that gives 50% inhibition. A lower IC50 goes with inhibition by little substance.

Regarding `CCCCCCCCCCC#Cc1cccc([C@@H](O)[C@@H](N)CO)c1`, the IC50 came out at 22.2 µM. In other words, the double-digit micromolar range.
As for `CCCCCCCCCCCCC/C=C/[C@@H](O)[C@@H](N)CO` [(E,2S,3R)-2-azanyloctadec-4-ene-1,3-diol], the figure is 23.4 µM.

These data come from BindingDB's records for doi:10.7270/Q2WS8WDS (n/a, 1995).
